These results are taken from US7432045B2 (priority 2003, dated 2008).

As usually defined, the pIC50 is the IC50 on a negative log10 scale, so that one unit is a factor of ten. The term pEC50 denotes the EC50 on a negative log10 scale, so that one unit is a factor of ten.

One series has as its system HSV-1 KOS. Nature of the series: Plaque reduction assay. Type of series: cell-based. As for the experimental part: Cell culture and virus: The procedures for growing Vero cells and preparing high titer stocks of HSV-1 KOS as described in Grau et al., Invest. Ophthal. and Vis. Sci. 30: 2474 (1989) were utilized. Vero cells were maintained in carbonate-buffered DMEM supplemented with 5% calf serum and 5% fetal bovine serum (regular medium). For some studies, cells were switched to serum-free DMEM buffered with 25 mM HEPES (pH 7.4) and allowed to adapt to that medium for 30 min prior to experimental treatments. Vero cells were seeded into wells (0.28 cm^2) of microtiter plates either at 3.5×10^4 cells/well for use 1 day later (8×10^4 cells/well) or at 1×10^4 cells/well for use 3 days later (2×10^5 cells/well).
Plaque reduction assay: Confluent Vero cell cultures in microtiter plates were infected for 1 hour at 37° C. in 40 μL of medium. Except where indicated, peptide treatments in 40 μL of medium lasted from 1 hour before through 1 hour after infection. At the end of the adsorption period, the cultures were re-fed with 100 μL of regular medium. Plaque formation was scored 2 days later and the number of plaques scored per well was normalized to the number counted in the absence of peptide. Using an ocular micrometer, plaque size (π/2×L×S) was determined by measuring the largest plaque diameter (L) and the diameter at a 90° angle to that (S). The size of each of the first 40 scored plaques was measured except when a plaque included less than 10 rounded cells or touched the side of the well.
Background: In a plaque reduction assay, fewer plaques than in the control indicate reduced infectivity or spread.

The next series is described as follows: MTS assay. As to conditions: human, CEMx174 cells (T-B hybridoma). (In general: Formazan colour is commonly taken as a measure of viable cells.)
For series [1], the system named is HSV-1 KOS mutant hrR3. As to conditions: 25 μM peptide.
A further series deals with H5 Avian Influenza virus. As to conditions: dog.
A short description of the next series: in vitro. As to conditions: African green monkey.
Series [2] can be described thus: MTS assay, eight cell lines. As to conditions: Vero, HeLa, CV-1PD, TM-1, DP-9, NIKS and W12E cells.
For the next series, the system named is hrR3 virions. Nature of the series: Inactivation of virions in solution. As to conditions: 37° C. In kind it is cell-based, HSV-1. The protocol:
Inactivation of virions: To assess the ability of peptides to inactivate virions, 3-4×10^6 pfu/mL of virus was mixed on ice with peptide in serum-free DMEM and incubated for 1 h at 4 or 37° C. Aliquots (10 μL) were diluted 1000-fold into peptide-free serum-supplemented DMEM at 23° C. and 50 μL aliquots were assayed in triplicate for infectivity in Vero cell cultures (dilution assay). Alternatively, 10 μL aliquots were diluted into 1 mL of ice-cold peptide-free serum-supplemented DMEM and the virus was pelleted as described above (centrifugation assay). Viral pellets were then resuspended in 250 μL serum-supplemented DMEM and 50 μL aliquots were assayed in triplicate for infectivity in Vero cell cultures.
Some of the virus diluted without the addition of NaCl was pelleted immediately (Control), while the rest of the diluted virus was stored at 4° C. and pelleted 19 h later. The virus was pelleted and assayed for infectivity as described in Example 1.

In series [3] the test system is HSV-1 KOS mutant hrR3. Nature of the series: Inactivation of pre-adsorbed virus (virus inactivation). In kind it is cell-based.

Each structure is given as a SMILES string. pEC50, pIC50: −log10 of the molar value. Read-outs that look alike come from different tables or passages of the source. Peptide text beside a SMILES is read from it. Bounds are passed on as bounds.

Take `CC(C)C[C@H](NC(=O)[C@H](C)NC(=O)[C@H](CC(C)C)NC(=O)[C@H](CC(C)C)NC(=O)[C@@H](NC(=O)[C@H](C)NC(=O)[C@@H]1CCCN1C(=O)[C@H](CC(C)C)NC(=O)[C@H](CC(C)C)NC(=O)[C@H](C)NC(=O)[C@@H](NC(=O)[C@H](C)NC(=O)[C@H](C)NC(=O)[C@H](CCCCN)NC(=O)[C@H](CCCCN)NC(=O)[C@H](CCCNC(=N)N)NC(=O)[C@@H](N)CCCNC(=N)N)C(C)C)C(C)C)C(=O)N[C@@H](CC(C)C)C(=O)N[C@@H](C)C(=O)N1CCC[C@H]1C(=O)O` [EB] (H-RRKKAAVALLPAVLLALLAP-OH): the “reduction of mean plaque size” value in the series on HSV-1 KOS (25 μM added 1 hour post-infection) is 70%. The same compound showed a mean plaque size with HSV-1 KOS (25 μM added 1 hour post-infection, untreated 66,000±6200) of 6900±2600 μm^2. Further, in the series on HSV-1 KOS (6 and 12 μM, up to 1 hour post-infection), the “combined mean plaque size after transient treatments” value was 68,000±11,000 μm^2. The “fold lower concentration blocking infections compared to EBX” value turned out to be 100 fold in the series on HSV-1 KOS (absence of serum, FIG. 1B) and 10 fold in the series with HSV-1 KOS (presence of serum (FIG. 1A)). For the same compound, the negative-log IC50 (pIC50) in the series with HSV-1 KOS (absence of serum, FIG. 1B, read-out: antiviral IC50 (plaque formation)) was 6.15; in the series on HSV-1 KOS (present continuously after infection, read-out: inhibition of plaque expansion IC50) it was 4.92; in the series on HSV-1 KOS (present continuously starting 1 hour post-infection, read-out: plaque number IC50), 4.62; in the series on HSV-1 KOS (present during infection and 1 hour pre- and post-infection, read-out: plaque number IC50) it was 5.26; with H5 Avian Influenza virus, 6.30; in the series “in vitro”, 4.17. For the same compound, in the series with Vero cells, the “concentration at which cytotoxic effects were seen first” value is 200 µM. Further, the “cytotoxic effects (trypan blue) in cellular resistance experiments” value in the series with Vero cells is “No cytotoxic effects”. Also, the pEC50 in “MTS assay” was 4.30; in series [2], less than 4.00. The “effect on development of lacZ+ cells when added immediately after citrate treatment” value in the series with HSV-1 KOS mutant hrR3 [1] is given as “no longer had any effect”. Further, the “cytotoxic effects (trypan blue staining)” value in the series on MDCK cells was “No cytotoxic effects”.

For `N=C(N)NCCC[C@H](NC(=O)CN)C(=O)N[C@@H](CCCCN)C(=O)N[C@@H](CCCCN)C(=O)N[C@@H](CCCNC(=N)N)C(=O)N[C@@H](CCCNC(=N)N)C(=O)N[C@@H](CCC(N)=O)C(=O)N[C@@H](CCCNC(=N)N)C(=O)N[C@@H](CCCNC(=N)N)C(=O)N[C@@H](CCCNC(=N)N)C(=O)N[C@@H](CS)C(=O)O` [TAT-C, NH2-GRKKRRQRRRC-COOH], the pIC50 was roughly 4.12 in the series with hrR3 virions (dilution or centrifugation, read-out: inactivation of virions IC50); 4.00 with hrR3 virions (read-out: Inactivation of Virions 37° C. IC50); 4.96 in the series with HSV-1 KOS mutant hrR3 [3] (33° C., read-out: Inactivation of Pre-Adsorbed Virus 33° C. IC50); 4.96 in the series on HSV-1 KOS mutant hrR3 [3] (33° C., read-out: Virus Inactivation IC50 (pre-adsorbed virus)); 4.96 in the series on HSV-1 KOS mutant hrR3 [3] (33° C., read-out: virus inactivation IC50); 5.28 in the series on HSV-1 KOS mutant hrR3 [3] (37° C., read-out: Inactivation of Pre-Adsorbed Virus 37° C. IC50).
